Experimental data as given in patent publication US20070275967A1, “Pyrazolinols” (BAYER CROPSCIENCE AKTIENGESELLSCHAFT, priority 2003, published 2007).

Tests used:
[1] = test system: larvae of the mustard beetle (Phaedon cochleariae); assay: Phaedon test (spray treatment); type: in vivo; conditions: for activity (kill of beetle larvae): Chinese cabbage disks sprayed, populated with Phaedon cochleariae larvae, result in words; for pest or weed control at 500 g/ha: Phaedon cochleariae, 168 h, active compound concentration 500 g/ha, after 7 d, spray treatment, read-out: Kill rate in % after 7 d
Procedure: Phaedon Test (Spray Treatment) [table] To produce a suitable preparation of active compound, 1 part by weight of active compound is mixed with the stated amounts of solvents and emulsifier, and the concentrate is diluted with emulsifier-containing water to the desired concentration. Disks of Chinese cabbage (Brassica pekinensis) are sprayed with a preparation of active compound of the desired concentration and, once they have dried, populated with larvae of the mustard beetle (Phaedon cochleariae). After the desired period of time, the activity in % is determined. 100% means that all beetle larvae have been killed; 0% means that none of the beetle larvae have been killed.

[2] = test system: caterpillars of the armyworm (Spodoptera frugiperda); assay: Spodoptera frugiperda test (spray treatment); type: in vivo
Procedure: Spodoptera Frugiperda Test (Spray Treatment) [table] To produce a suitable preparation of active compound, 1 part by weight of active compound is mixed with, the stated amounts of solvents and emulsifier, and the concentrate is diluted with emulsifier-containing water to the desired concentration. Disks of corn leaves (Zea mays) are sprayed with a preparation of active compound of the desired concentration and, after they have dried, populated with caterpillars of the armyworm (Spodoptera frugiperda). After the desired period of time, the activity in % is determined. 100% means that all caterpillars have been killed; 0% means that none of the caterpillars have been killed.

[3] = test system: Adults of Ctenocephalides felis; assay: Test with cat fleas/oral uptake; type: in vivo; conditions: for Kill rate in % after 2 d: active compound concentration 100 ppm, oral uptake; for mortality of fleas: oral uptake from citrated cattle blood, at least 75% kill within 48 h judged effective, result in words
Procedure: Test with Cat Fleas/Oral Uptake
Ctenocephalides Felis (Oral)
To produce a suitable formulation, a suitable solution of active compound is prepared from 10 mg of active compound and 0.5 ml of DMSO. 10 μl of this formulation are added to 2 ml of citrated cattle blood and stirred.
20 unfed adult fleas (Ctenocephalides felis, strain “Georgi”) are placed into a chamber (Ø 5 cm) whose top and bottom are closed with gauze. A metal cylinder whose underside is covered with parafilm is placed onto the chamber. The cylinder contains the 2 ml of blood/active compound formulation which can be taken up by the fleas through the parafilm membrane. Whereas the blood is warmed to 37° C., the temperature in the area of the flea chambers is adjusted to room temperature. Controls are mixed with the same volume of DMSO, without addition of a compound.
After 24 h and 48 h, the mortality in % is determined.
Compounds which effect an at least 75% kill of the fleas within 48 h are judged to be effective.

[4] = logP determination by HPLC on reversed-phase column (EEC Directive 79/831 Annex V.A8); type: physicochemical; conditions: reversed-phase C18 HPLC column; acidic range (pH 2.3), marked a); 0.1% aqueous phosphoric acid/acetonitrile gradient; reversed-phase C 18; 43° C.
Summary of the method: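 Reversed-phase C18 HPLC at 43° C with 10–90% acetonitrile linear gradient, run at pH 2.3 (0.1% phosphoric acid) or pH 7.5 (0.01-molar phosphate buffer). logP derived from retention times by linear interpolation against unbranched alkan-2-ones (C3–C16) of known logP.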

[5] = test system: greenhouse red spidermite (Tetranychus urticae); assay: Tetranychus test (OP-resistant/spray treatment); type: in vivo
Procedure: Tetranychus Test (OP-Resistant/Spray Treatment)
To produce a suitable preparation of active compound, 1 part by weight of active compound is mixed with the stated amounts of solvents and emulsifier, and the concentrate is diluted with emulsifier-containing water to the desired concentration.
Disks of bean leaves (Phaseolus vulgaris) which are infested by all stages of the greenhouse red spidermite (Tetranychus urticae) are sprayed with a preparation of active compound of the desired concentration.
After the desired period of time, the activity in % is determined. 100% means that all spidermites have been killed; 0% means that none of the spidermites have been killed.

[6] = test system: Meloidogyne incognita; assay: Meloidogyne test (nematicidal action by gall formation on lettuce roots); type: in vivo; conditions: for nematicidal action (formation of galls): Meloidogyne incognita egg/larvae suspension, lettuce, sand, result in words; for pest or weed control at 20 ppm: Meloidogyne incognita, 336 h, active compound concentration 20 ppm, after 14 d, nematicidal action by gall formation, read-out: Effect in % after 14 d
Procedure: Meloidogyne Test [table] To produce a suitable preparation of active compound, 1 part by weight of active compound is mixed with the stated amounts of solvent and emulsifier, and the concentrate is diluted with water to the desired concentration. Containers are filled with sand, solution of active compound, Meloidogyne incognita egg/larvae suspension and lettuce seeds. The lettuce seeds germinate and the plants develop. On the roots, galls are formed. After the desired period of time, the nematicidal action is determined in % by the formation of galls. 100% means that no galls were found; 0% means that the number of galls on the treated plants corresponds to that of the untreated control.

SMILES	activity (kill of beetle larvae) [1]	pest or weed control at 500 g/ha [1] [%]	pest or weed control at 500 g/ha ([2]; Spodoptera frugiperda, 168 h, active compound concentration 500 g/ha, after 7 d, spray treatment, read-out: Kill rate in % after 7 d) [%]	activity (kill of caterpillars) ([2]; corn leaf disks sprayed, populated with Spodoptera frugiperda caterpillars, result in words)	Kill rate in % after 2 d [3] [%]	mortality of fleas [3]	chromatographic logP [4]	pest or weed control at 500 g/ha ([5]; Tetranychus urticae, 120 h, active compound concentration 500 g/ha, after 5 d, OP-resistant, spray treatment, read-out: Kill rate in % after 5 d) [%]	activity (kill of spidermites) ([5]; bean leaf disks infested by all stages of Tetranychus urticae (OP-resistant), sprayed, result in words)	nematicidal action (formation of galls) [6]	pest or weed control at 20 ppm [6] [%]
CC(C)C1=NN(C(=S)Nc2c(Cl)cccc2Cl)C(O)(C(F)(F)F)C1 (centres unmarked) [Example 29]	good activity	100	100	good activity	100	good activity	4	–	–	–	–
CC(C)C1=NN(C(=S)Nc2ccc(Cl)cc2Cl)C(O)(C(F)(F)F)C1 (centres unmarked) [Example 34]	good activity	100	–	–	100	good activity	4.91	100	good activity	–	–
CC1=NN(C(=S)Nc2c(F)cccc2F)C(O)(C(F)(F)F)C1 (centres unmarked) [Example 100]	–	–	–	–	–	–	2.91	–	–	good activity	90
CC1=NN(C(=O)Nc2ccc(Cl)cc2)C(O)(C(F)(F)F)C1 (centres unmarked) [Example 114]	–	–	–	–	–	–	3	–	–	good activity	90
CC1=NN(C(=O)Nc2ccc(C(F)(F)F)cc2)C(O)(C(F)(F)F)C1 (centres unmarked) [Example 115]	–	–	–	–	–	–	3.26	–	–	good activity	100
